One test has as its target T1, CAAX prenyl protease 2 (Saccharomyces cerevisiae S288c, UniProt Q03530).
T1 sequence (Q03530 whole entry): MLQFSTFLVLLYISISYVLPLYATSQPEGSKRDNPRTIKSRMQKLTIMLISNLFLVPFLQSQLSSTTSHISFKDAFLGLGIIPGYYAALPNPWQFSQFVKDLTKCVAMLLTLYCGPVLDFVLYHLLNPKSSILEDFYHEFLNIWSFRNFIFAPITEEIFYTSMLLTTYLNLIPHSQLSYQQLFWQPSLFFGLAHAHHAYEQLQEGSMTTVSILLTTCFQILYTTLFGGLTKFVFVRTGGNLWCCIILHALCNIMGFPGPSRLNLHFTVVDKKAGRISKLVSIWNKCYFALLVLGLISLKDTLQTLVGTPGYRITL
It is filed as biochemical.

Another test has as its target CAAX prenyl protease 1 (Saccharomyces cerevisiae S288c, UniProt P47154). The test is described as follows: yeast CAAX protease Ste24 inhibition – biochemical, S. cerevisiae, plate reader, cherry-pick, dose response (AID 488815).
The target of test [1] is Heat shock protein HSP 90-alpha (Homo sapiens, UniProt P07900). Format: functional, organism-based.
The next test concerns INS1. The test is described as follows: INS-1E survival protection against cytokine death – cell-based, luminescence, retest, dose response (AID 449756).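 Also: cell death triggered by IL-1 beta plus TNF-alpha plus IFN-gamma mixture; protective hits raise ATP signal compared with cytokine alone wells.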 It is filed as functional. Conditions: Rattus norvegicus.
Another test addresses Melanocortin receptor 4 (Homo sapiens, UniProt P32245). The test is described as follows: inhibitors of MC4R cAMP signaling – cell-based, TR-FRET, biased antagonists, dose response (AID 602298).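 Also: antagonist potency against agonist-stimulated cAMP production.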 Format: functional. A general note: TR-FRET usually uses a lanthanide donor and a delayed reading to cut background.
The nature of test [2]: cAMP pathway inhibition in counterscreen cell line – TR-FRET cAMP detection, counter-screen for MC4R biased antagonist project, dose response (AID 602305).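 Also: U2OS cells stimulated with forskolin near its EC80 as the cAMP inducer; potency is for inhibition of forskolin-stimulated cAMP signaling.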 Format: functional, cell-based. In general terms: The purpose of a counterscreen is to sort out artefacts and off-target activity.
For test [3], the system named is HEK293. The test is described as follows: inhibition of NOD1-driven NF-kB reporter – cell-based, luminescence, uHTS, primary screen (AID 1578). Conditions: Homo sapiens. Format: functional.
For test [4], the target named is T2, Heat shock factor protein 1 (Mus musculus, UniProt P38532).
T2 sequence (P38532 whole entry): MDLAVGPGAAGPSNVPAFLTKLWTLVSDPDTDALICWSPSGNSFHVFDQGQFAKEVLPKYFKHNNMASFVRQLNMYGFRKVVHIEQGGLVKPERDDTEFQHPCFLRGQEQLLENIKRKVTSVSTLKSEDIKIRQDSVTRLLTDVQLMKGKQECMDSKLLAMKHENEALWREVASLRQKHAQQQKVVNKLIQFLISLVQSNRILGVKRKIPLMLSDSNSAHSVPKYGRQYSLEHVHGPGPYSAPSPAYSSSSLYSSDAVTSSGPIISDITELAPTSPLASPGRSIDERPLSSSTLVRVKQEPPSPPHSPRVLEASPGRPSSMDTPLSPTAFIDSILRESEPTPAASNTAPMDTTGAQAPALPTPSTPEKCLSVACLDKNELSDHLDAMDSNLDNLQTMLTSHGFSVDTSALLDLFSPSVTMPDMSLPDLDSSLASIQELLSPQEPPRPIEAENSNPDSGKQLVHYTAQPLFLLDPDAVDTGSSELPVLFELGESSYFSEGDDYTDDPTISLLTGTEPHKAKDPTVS
Nature of the test: decrease of HSF1-responsive luciferase luminescence – cell-based, NIH3T3, dose retest, confirmation (AID 2382).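 Also: NIH3T3 fibroblasts with HSF1-driven luciferase reporter stressed by proteasome inhibitor MG132; luminescence from HSF1-driven luciferase expression after 8 hours of MG132 stress.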 It is filed as functional.

The test system of test [5] is HEK293. The test is described as follows: cells. To be noted: Homo sapiens. It is filed as functional, cell-based.
Test [6] addresses Nucleotide-binding oligomerization domain-containing protein 2 (Homo sapiens, UniProt Q9HC29). Nature of the test: inhibition of NOD2-driven NF-kB reporter – cell-based, luminescence, uHTS, HEK293 (AID 1566). It is filed as functional.
Test [7] deals with HEK293. The test is described as follows: NOD2 signaling inhibitors in MDP-stimulated cells, cell-based, uHTS, luminescence (AID 2001). It is filed as functional. To be noted: Homo sapiens.
Test [8] concerns HEK293. Nature of the test: cells. Format: functional, cell-based. To be noted: Homo sapiens. The source holds these as a separate data set.
Test [9] can be described thus: viability of PTEN-deleted HCT116 cells – cell-based, HCT116 PTEN knockout, dose response (AID 1047).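 Also: HCT116 colon tumor cells with PTEN knocked out; cells exposed to compound for 60 hours before readout; potency for loss of cell viability measured by luminescence.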 Format: functional.
Test [10] in a line: viability of HCT116 lacking mutant beta-catenin – cell-based, human colon tumor, dose response (AID 1045).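 Also: HCT116 colon tumor cells with beta catenin knocked out; cells exposed to compound for 60 hours.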 Format: functional.
In test [11] the target is Neurotensin receptor type 1 (Homo sapiens, UniProt P30989). Format: functional.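 Also: Image-based confirmatory dose-response assay measuring agonist activity at NTR1; NTR1-expressing U2OS osteosarcoma cells imaged for beta-arrestin GFP spot formation; agonist potency where compounds increase beta-arrestin recruitment.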
The target in another test is T3, Hexokinase HKDC1 (Homo sapiens, UniProt Q2TB90).
T3 sequence (Q2TB90 whole entry): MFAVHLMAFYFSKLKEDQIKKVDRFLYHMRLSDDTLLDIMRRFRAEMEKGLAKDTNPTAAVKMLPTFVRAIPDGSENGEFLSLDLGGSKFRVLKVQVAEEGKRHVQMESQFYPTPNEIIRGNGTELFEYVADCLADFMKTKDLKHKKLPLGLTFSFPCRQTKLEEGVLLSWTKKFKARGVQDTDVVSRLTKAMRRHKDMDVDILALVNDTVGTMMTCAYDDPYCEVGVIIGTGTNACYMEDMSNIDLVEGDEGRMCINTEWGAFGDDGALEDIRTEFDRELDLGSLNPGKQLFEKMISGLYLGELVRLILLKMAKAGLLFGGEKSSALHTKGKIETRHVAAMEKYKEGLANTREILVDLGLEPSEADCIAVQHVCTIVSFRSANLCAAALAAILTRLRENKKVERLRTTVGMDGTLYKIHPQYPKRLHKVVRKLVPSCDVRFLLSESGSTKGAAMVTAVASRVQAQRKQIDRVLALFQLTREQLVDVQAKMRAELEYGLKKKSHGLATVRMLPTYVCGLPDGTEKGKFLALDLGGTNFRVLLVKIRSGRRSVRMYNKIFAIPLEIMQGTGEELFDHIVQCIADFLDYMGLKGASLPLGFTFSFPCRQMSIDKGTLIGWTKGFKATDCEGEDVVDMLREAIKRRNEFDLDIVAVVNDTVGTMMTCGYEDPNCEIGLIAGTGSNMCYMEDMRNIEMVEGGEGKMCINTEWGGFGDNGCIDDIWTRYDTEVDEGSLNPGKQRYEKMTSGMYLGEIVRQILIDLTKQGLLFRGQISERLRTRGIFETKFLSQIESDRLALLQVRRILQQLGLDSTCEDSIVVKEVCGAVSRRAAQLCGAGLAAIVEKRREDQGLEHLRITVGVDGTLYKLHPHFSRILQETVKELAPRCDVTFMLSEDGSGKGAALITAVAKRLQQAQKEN
The test is described as follows: inhibition of HKDC1 glucose phosphorylation – biochemical, W721R variant, dose response (AID 504729). Format: functional.

The target in test [12] is T4, Fatty acid synthase (Homo sapiens, UniProt P49327). Nature of the test: inhibition of human FAS-TE enzyme activity – biochemical, endpoint fluorescence intensity, uHTS hits, dose response (AID 624327).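 Also: fluorescence from hydrolysis of an O-methyl fluorescein acyl ester substrate by the enzyme.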 It is filed as functional.
For test [13], the target named is T4, Fatty acid synthase. Nature of the test: inhibition of human FAS-TE enzyme activity – biochemical, kinetic fluorescence intensity, dose response (AID 624326).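 Also: rate of fluorescence rise from hydrolysis of a fluorogenic O-methyl fluorescein ester substrate.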 Format: functional.
A further test concerns the target Paired box protein Pax-8 (Homo sapiens, UniProt Q06710). Nature of the test: PAX8 transcriptional activity inhibition in RMG-I – RMG-I cells, luciferase, cherry-pick, dose response (AID 687027).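 Also: luciferase reporter driven by Pax8 target thyroperoxidase promoter measured by SteadyGlo luminescence.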 It is filed as functional, cell-based.
A short description of test [14]: general cell-killing toxicity readout – plate reader, dry powder samples, cytotoxicity control for PAX8 inhibitor project, dose response (AID 743021). It is filed as functional, cell-based.

SMILES strings stand for the structures. Active and inactive are the calls of the source.

From ChEMBL document CHEMBL1201862, “PubChem BioAssay data set” (2004) come the findings set out here.

The term AC50 denotes the midpoint of the concentration-response curve, whichever way the signal moves. What is called IC50 is the concentration that gives 50% inhibition. The EC50 is the midpoint of the concentration-response curve.

T4 sequence (P49327 whole entry): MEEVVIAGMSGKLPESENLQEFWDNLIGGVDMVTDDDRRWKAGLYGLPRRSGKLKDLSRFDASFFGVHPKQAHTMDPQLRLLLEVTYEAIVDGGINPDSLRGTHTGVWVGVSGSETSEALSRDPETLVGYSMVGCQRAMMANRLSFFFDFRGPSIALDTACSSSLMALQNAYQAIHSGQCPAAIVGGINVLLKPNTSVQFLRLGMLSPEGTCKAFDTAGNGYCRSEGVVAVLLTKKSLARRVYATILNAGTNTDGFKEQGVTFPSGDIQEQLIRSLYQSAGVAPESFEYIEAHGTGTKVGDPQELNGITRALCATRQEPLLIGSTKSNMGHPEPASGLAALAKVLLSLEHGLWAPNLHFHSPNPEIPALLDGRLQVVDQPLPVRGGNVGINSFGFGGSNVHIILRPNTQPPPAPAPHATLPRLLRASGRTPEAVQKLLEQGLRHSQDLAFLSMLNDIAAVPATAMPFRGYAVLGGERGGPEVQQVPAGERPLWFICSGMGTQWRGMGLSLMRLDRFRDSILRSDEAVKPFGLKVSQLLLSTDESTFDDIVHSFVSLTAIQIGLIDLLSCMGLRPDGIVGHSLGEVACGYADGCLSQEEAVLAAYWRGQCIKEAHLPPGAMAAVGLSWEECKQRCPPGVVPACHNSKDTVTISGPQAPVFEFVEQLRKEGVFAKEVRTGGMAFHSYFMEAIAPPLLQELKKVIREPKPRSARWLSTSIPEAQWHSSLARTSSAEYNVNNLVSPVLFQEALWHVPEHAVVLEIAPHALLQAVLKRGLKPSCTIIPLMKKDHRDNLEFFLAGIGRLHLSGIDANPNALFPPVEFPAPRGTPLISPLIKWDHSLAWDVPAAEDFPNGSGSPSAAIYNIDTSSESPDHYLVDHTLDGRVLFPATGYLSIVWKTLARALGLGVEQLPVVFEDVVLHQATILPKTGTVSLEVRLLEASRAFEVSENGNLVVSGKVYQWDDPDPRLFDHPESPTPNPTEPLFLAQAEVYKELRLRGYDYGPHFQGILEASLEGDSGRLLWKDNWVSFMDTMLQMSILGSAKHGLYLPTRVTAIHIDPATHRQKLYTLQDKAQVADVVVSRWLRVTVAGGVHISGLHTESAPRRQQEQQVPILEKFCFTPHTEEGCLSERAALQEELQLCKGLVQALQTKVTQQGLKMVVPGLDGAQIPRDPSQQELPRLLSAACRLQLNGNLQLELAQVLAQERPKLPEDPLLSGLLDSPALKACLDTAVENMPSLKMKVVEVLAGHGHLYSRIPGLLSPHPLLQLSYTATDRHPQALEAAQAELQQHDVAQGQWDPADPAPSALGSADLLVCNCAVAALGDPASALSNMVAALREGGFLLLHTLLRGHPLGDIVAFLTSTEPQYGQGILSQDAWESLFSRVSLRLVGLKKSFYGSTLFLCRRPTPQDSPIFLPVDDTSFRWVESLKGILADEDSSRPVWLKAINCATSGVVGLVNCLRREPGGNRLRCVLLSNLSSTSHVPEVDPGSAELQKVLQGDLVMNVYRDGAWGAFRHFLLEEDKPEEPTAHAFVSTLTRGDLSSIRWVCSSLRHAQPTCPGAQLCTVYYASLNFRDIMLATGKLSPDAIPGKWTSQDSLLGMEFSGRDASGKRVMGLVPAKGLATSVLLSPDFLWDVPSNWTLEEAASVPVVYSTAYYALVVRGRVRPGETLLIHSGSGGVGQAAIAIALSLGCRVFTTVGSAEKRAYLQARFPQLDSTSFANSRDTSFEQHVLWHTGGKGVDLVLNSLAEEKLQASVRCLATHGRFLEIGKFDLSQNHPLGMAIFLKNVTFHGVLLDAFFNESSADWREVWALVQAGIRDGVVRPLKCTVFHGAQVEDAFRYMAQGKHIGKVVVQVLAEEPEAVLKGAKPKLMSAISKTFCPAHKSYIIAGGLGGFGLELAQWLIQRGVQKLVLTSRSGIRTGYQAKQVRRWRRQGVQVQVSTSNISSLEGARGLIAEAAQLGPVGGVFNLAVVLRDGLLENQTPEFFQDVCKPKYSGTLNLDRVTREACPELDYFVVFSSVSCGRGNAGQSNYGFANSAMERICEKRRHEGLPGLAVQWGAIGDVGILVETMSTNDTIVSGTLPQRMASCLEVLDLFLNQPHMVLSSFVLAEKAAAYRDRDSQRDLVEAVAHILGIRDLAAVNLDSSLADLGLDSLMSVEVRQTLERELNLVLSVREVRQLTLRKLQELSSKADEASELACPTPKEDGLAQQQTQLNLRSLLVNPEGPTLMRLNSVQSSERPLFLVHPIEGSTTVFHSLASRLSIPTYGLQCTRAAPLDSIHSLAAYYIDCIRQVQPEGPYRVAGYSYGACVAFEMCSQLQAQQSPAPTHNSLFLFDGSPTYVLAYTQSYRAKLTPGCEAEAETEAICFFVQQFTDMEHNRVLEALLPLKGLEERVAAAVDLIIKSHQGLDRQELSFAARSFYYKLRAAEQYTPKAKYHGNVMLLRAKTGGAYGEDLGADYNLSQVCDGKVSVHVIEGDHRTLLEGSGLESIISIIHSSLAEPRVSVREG
Sequence of Nucleotide-binding oligomerization domain-containing protein 2 (Q9HC29 whole entry, the tested form may be a part): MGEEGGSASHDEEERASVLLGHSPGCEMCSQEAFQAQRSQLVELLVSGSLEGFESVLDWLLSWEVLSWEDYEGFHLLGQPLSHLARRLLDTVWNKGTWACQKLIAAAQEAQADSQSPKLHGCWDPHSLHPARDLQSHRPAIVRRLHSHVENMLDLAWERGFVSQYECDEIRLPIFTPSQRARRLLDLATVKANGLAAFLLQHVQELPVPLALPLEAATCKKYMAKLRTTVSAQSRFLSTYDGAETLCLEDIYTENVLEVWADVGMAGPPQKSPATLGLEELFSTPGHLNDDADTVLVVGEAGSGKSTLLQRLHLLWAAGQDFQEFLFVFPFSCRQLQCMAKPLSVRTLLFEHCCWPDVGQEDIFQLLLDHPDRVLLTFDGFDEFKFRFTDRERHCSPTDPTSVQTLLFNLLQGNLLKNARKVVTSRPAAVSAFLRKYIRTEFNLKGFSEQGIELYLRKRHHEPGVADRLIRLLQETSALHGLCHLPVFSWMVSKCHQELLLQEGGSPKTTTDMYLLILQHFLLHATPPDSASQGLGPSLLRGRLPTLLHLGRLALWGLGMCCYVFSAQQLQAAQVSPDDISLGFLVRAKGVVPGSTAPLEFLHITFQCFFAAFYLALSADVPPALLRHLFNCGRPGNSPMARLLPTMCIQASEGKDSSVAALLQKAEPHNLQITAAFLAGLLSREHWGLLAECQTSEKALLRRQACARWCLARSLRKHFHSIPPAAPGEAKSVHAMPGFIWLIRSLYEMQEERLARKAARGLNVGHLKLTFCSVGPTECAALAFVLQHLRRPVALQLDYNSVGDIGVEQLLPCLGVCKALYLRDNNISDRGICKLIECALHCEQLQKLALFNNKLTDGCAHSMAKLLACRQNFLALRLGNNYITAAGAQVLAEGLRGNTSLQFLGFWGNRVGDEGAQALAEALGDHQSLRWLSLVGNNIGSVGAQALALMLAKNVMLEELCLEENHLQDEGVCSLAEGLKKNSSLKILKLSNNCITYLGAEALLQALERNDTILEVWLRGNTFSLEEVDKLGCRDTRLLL
Sequence of CAAX prenyl protease 1 (P47154 whole entry): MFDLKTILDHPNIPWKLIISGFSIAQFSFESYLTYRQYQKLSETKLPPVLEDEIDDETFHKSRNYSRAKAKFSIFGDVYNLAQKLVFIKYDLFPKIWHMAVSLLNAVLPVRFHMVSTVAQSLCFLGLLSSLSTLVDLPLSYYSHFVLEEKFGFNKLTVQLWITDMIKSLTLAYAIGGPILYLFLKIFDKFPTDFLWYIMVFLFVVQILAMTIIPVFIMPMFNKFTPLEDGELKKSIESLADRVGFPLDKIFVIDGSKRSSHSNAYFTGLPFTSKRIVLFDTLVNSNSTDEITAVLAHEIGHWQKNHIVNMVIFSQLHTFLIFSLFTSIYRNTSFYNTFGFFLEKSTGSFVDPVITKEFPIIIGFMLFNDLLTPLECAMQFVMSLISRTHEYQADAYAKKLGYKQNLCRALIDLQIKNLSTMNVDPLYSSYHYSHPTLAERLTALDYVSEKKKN
Sequence of Melanocortin receptor 4 (P32245 whole entry): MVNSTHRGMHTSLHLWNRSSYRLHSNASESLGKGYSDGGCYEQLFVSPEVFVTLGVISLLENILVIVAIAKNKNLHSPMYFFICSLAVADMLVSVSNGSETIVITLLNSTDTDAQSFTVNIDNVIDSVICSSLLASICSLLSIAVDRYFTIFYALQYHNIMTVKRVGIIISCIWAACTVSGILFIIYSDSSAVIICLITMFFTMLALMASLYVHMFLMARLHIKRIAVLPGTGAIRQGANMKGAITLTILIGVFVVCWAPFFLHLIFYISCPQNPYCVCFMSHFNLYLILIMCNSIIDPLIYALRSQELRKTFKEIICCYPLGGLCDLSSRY
Sequence of Paired box protein Pax-8 (Q06710 whole entry): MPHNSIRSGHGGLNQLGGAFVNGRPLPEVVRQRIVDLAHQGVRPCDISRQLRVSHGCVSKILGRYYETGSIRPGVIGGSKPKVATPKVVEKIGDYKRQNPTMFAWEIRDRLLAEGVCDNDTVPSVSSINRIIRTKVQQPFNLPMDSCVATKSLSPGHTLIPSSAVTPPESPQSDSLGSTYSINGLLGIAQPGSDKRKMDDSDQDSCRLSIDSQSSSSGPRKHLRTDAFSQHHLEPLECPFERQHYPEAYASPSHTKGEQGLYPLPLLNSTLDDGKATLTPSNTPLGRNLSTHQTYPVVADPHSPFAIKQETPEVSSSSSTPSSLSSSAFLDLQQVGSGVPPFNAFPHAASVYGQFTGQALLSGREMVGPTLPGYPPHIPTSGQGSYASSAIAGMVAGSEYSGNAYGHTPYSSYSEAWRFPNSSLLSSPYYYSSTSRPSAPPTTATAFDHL

Turning to `CCCCCCCCCC[N+](C)(C)CC/C=C1/c2ccccc2Sc2ccc(Cl)cc21`, the AC50 is 4.96 µM (active) on CAAX prenyl protease 2, 6.47 µM (active) at CAAX prenyl protease 1, 8.12 µM (active) in test [1] and 5.67 µM (active) in the test on INS1. In addition, the IC50 was 31.2 µM (inactive) on Melanocortin receptor 4 and 22.6 µM (inactive) in [2].

`O=C(NCCc1ccccc1)C(c1cccs1)N(C(=O)CCl)c1ccc(Cl)cc1` (stereo not given): the EC50 in the test with HEK293 [3] is 5.3 µM (active); in test [4] it was 1.28 µM (active); in test [6], > 20 µM (inactive); in [9], 3.7 µM (active); in test [10], 2.62 µM (active); in test [11] it was 2.5 µM (active). In addition, the IC50 in the test with HEK293 [5] is 11.5 µM (active); with HEK293 [7], 5.36 µM (active); in the test on HEK293 [8], > 20 µM (inactive); on Hexokinase HKDC1, 35.7 µM (inactive); at Fatty acid synthase [12], 7.91 µM (active); on Fatty acid synthase [13], 10.3 µM (active). In addition, the AC50 at Paired box protein Pax-8 was 2.84 µM (active); in [14], 6.13 µM (active).
